Data on 3 molecules can be found in patent publication EP0545805A1, “Use of D-fenfluramine and fenfluramine derivatives in the treatment of hypertension in insulin-resistant patients” (ADIR ET COMPAGNIE, priority 1991, dated 1993).

The subject of one assay is rat âgé. Description: Chronic treatment of the aged rat (insulin resistance, hyperinsulinaemia, raised blood pressure): blood pressure. It counts as in vivo. The method, then: 2- Etude du traitement chronique du rat âgé
Au cours du vieillissement, une insulino-résistance apparaît, accompagnée d'une hyperinsulinémie et d'une élévation de la pression artérielle (cf tableau 1 ci-après).
Le traitement par la d-fenfluramine à la dose de 2,5 mg/kg 2 fois par jour pendant 3 semaines, diminue la pression artérielle du rat âgé de 12.10² Pa sans modifier celle du rat jeune.

For assay [1] the following is noted: from cited literature (Storlien et al., Brindley et al., Carr et al., Duhault et al., Pestell et al.); cited from earlier work.
The test system of the next assay is réactivité vasculaire. Description: Vascular reactivity after chronic treatment of the aged rat: maximum contraction to serotonin and ADP. It counts as in vivo. Conditions: 12-month rats treated with d-fenfluramine. The source says: Cet effet est relié à une normalisation de la réactivité vasculaire, en particulier à la sérotonine et à l'ADP (cf tableau 2 ci-après).

`CC(Cc1cccc(C(F)(F)F)c1)NCCOC(=O)c1ccccc1` (centres unmarked) [benfluorex]: the “Blood pressure and vascular reactivity of the aged rat (results compared with d-fenfluramine)” value with rat âgé (50 mg/kg, 5 times per day) is listed as “résultats analogues”.
As for `CCNC(C)Cc1cccc(C(F)(F)F)c1` (racemic) [dl fenfluramine], in assay [1], the “insulino-résistance et hyperinsulinémie basale” value is recorded as “capables de réduire l'insulino-résistance et l'hyperinsulinémie basale”.
With `CCN[C@@H](C)Cc1cccc(C(F)(F)F)c1` [d-fenfluramine], the “Maximum de contraction Sérotonine” value with réactivité vasculaire (expressed relative to KCl = 100 % contraction) turned out to be 145%. Further, in the assay with réactivité vasculaire (expressed relative to phenylephrine = 100 % contraction), the “Maximum de contraction ADP” value came to 66%. Besides, the “pression artérielle du rat jeune” value in the assay with rat âgé (young rat, 2,5 mg/kg twice daily for 3 weeks) is on record as “sans modifier”.
